Test results from US20060069132A1, “Azolecarboxamide herbicides” (priority 2004, published 2006).

Legend:
barnyardgrass [1] = assay: Test C flooded paddy test; assay type: in vivo, Echinochloa crus-galli
How it was run: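 Visual rating, 0 (no effect) to 100 (complete control), vs. controls at 12–14 d in greenhouse. Postemergence: 1–4-leaf plants, 2–18 cm. Paddy: flooded, barnyardgrass at 2-leaf stage.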

wild oat = assay: Test B postemergence herbicide test; assay type: in vivo, Avena fatua; conditions: postemergence
How it was run: (§1)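 Plants grow to 1- to 4-leaf stage (2–18 cm) for postemergence spraying, or to 2-leaf stage for the paddy test. Formulated compound is applied. Greenhouse holding lasts 13–15 days. Response is scored visually relative to controls, 0 no effect to 100 complete control; a dash means no result.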

rice [2] = assay: Test B flooded paddy test; assay type: in vivo, Oryza sativa; conditions: 1000 g ai/ha, scale 0 to 100 (0 no effect, 100 complete control)
How it was run: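 Visual ratings, 0 (no effect) to 100 (complete control), made versus controls after 13–15 d greenhouse. Paddy plants treated at 2-leaf stage; postemergence plants at 1- to 4-leaf stage, 2–18 cm tall.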

Surinam grass = assay: Test B pre-/postemergence herbicide test; assay type: in vivo, Urochloa decumbens; conditions: for Surinam Grass plant response rating: postemergence
How it was run: (§2)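 Seeds were planted and treated preemergence with compounds formulated in a non-phytotoxic solvent mixture containing surfactant, while plants at the 1- to 4-leaf stage (2 to 18 cm) received postemergence sprays. Flooded paddy plants were grown to the 2-leaf stage. After 13 to 15 days in a greenhouse, injury was visually rated 0–100 against untreated controls.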

wheat = assay: Test B postemergence herbicide test; assay type: in vivo, Triticum aestivum; parameters: key to Wheat plant response rating: 0 = no effect, 100 = complete control; conditions: postemergence
How it was run: as §1

corn = assay: Test B pre-/postemergence herbicide test; assay type: in vivo, Zea mays; conditions: for Corn plant response rating: postemergence
How it was run: as §2

[3] = system: smallflower umbrella sedge; assay: Test C flooded paddy test; assay type: in vivo, Cyperus difformis
lambsquarters = assay: Test B pre-/postemergence herbicide test; assay type: in vivo, Chenopodium album; conditions: for Lambsquarters plant response rating: postemergence
How it was run: as §2

morningglory = assay: Test B pre-/postemergence herbicide test; assay type: in vivo, Ipomoea coccinea; conditions: for Morningglory plant response rating: postemergence
How it was run: (§3)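 Plants compared with untreated controls 13–15 days post-treatment and given a visual 0–100 injury score. Applications: preemergence to seeds; postemergence at 1- to 4-leaf (2–18 cm); paddy species flooded, 2-leaf stage. Vehicle non-phytotoxic, surfactant included.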

rice [4] = assay: Test C flooded paddy test; assay type: in vivo, Oryza sativa
How it was run: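 Injury scored visually against controls on a 0 (no effect) to 100 (complete control) scale, 12 to 14 days after treatment in greenhouse. Flooded paddy plants treated at 2-leaf stage; postemergence plants at 1- to 4-leaf stage, 2 to 18 cm tall.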

barnyardgrass [5] = assay: Test B flooded paddy test; assay type: in vivo, Echinochloa crus-galli; conditions: 1000 g ai/ha, scale 0 to 100 (0 no effect, 100 complete control)
How it was run: (§4)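 Formulated test chemicals went onto postemergence plants measuring 2 to 18 cm, at one to four leaves. For the paddy assay, species had reached two leaves. Scoring took place 13–15 days later by eye, relative to untreated plants, using 0 for no effect up to 100 for full control.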

giant foxtail = assay: Test B pre-/postemergence herbicide test; assay type: in vivo, Setaria faberi; conditions: for Foxtail, Giant plant response rating: postemergence
How it was run: as §2

blackgrass = assay: Test B postemergence herbicide test; assay type: in vivo, Alopecurus myosuroides; conditions: postemergence, visual rating, scale 0 (no effect) to 100 (complete control)
How it was run: as §4

ducksalad [6] = assay: Test C flooded paddy test; assay type: in vivo, Heteranthera limosa
cocklebur = assay: Test B pre-/postemergence herbicide test; assay type: in vivo, Xanthium strumarium; conditions: postemergence, visual rating, scale 0 (no effect) to 100 (complete control)
How it was run: as §3

large crabgrass = assay: Test B pre-/postemergence herbicide test; assay type: in vivo, Digitaria sanguinalis; conditions: for Crabgrass, Large plant response rating: postemergence
How it was run: as §2

[7] = system: small flower umbrella sedge; assay: Test B flooded paddy test; assay type: in vivo, Cyperus difformis; conditions: 1000 g ai/ha, scale 0 to 100 (0 no effect, 100 complete control)
How it was run: as §4

rice [8] = assay: Test B pre-/postemergence herbicide test; assay type: in vivo, Oryza sativa; conditions: 0 = no effect, 100 = complete control, preemergence
How it was run: as §2

pigweed = assay: Test B pre-/postemergence herbicide test; assay type: in vivo, Amaranthus retroflexus; conditions: for Pigweed plant response rating: postemergence
How it was run: as §2

velvetleaf = assay: Test B pre-/postemergence herbicide test; assay type: in vivo, Abutilon theophrasti; conditions: for Velvetleaf plant response rating: postemergence
How it was run: as §2

barnyardgrass [9] = assay: Test B pre-/postemergence herbicide test; assay type: in vivo, Echinochloa crus-galli; conditions: for Barnyardgrass plant response rating: postemergence, scale 0 (no effect) to 100 (complete control)
How it was run: as §3

ducksalad [10] = assay: Test B flooded paddy test; assay type: in vivo, Heteranthera limosa; conditions: 1000 g ai/ha, scale 0 to 100 (0 no effect, 100 complete control)
How it was run: as §4

[11] = 125 g ai/ha, scale 0 to 100 (0 no effect, 100 complete control)
[12] = 250 g ai/ha, scale of 0 to 100, 0 is no effect, 100 is complete control
[13] = 500 g ai/ha, visual rating after 12 to 14 days, scale 0 to 100 (0 no effect, 100 complete control)
[14] = 125 g ai/ha, visual rating, scale 0 (no effect) to 100 (complete control)
[15] = 500 g ai/ha, scale 0 to 100, 0 is no effect, 100 is complete control
[16] = 125 g ai/ha, 0 = no effect, 100 = complete control, preemergence
[17] = 500 g ai/ha, visual rating, 0 = no effect, 100 = complete control, preemergence

CCN(C)C(=O)c1cncc(NC(=O)c2cc(C(C)(C)C)nn2CC)c1 [Compound 263]
Barnyardgrass plant response rating (barnyardgrass [1]; 62 g ai/ha, scale 0 to 100 (0 no effect, 100 complete control)): 0 | Barnyardgrass plant response rating (barnyardgrass [1]; [11]): 0 | Barnyardgrass plant response rating (barnyardgrass [1]; [12]): 0 | Plant response rating, Barnyardgrass (barnyardgrass [1]; [13]): 0 | Oat, Wild plant response rating (wild oat; [14]): 10 | Oat, Wild plant response rating (wild oat; [15]): 20 | Rice plant response rating (rice [2]): 70 | Surinam Grass plant response rating (0 to 100 scale) (Surinam grass; [16]): 10 | Plant response rating, Surinam Grass (Surinam grass; [17]): 30 | Surinam Grass plant response rating (Surinam grass; [14]): 10 | Surinam Grass plant response rating (Surinam grass; [15]): 10 | Wheat plant response rating (wheat; [14]): 10 | Wheat plant response rating (wheat; [15]): 20 | Corn plant response rating (0 to 100 scale) (corn; [16]): 0 | Plant response rating, Corn (corn; [17]): 0 | Corn plant response rating (corn; [14]): 0 | Corn plant response rating (corn; [15]): 10 | Sedge, Umbrella plant response rating ([3]; 62 g ai/ha, scale 0 to 100): 0 | Sedge, Umbrella plant response rating [3, 11]: 0 | Sedge, Umbrella plant response rating [3, 12]: 30 | Plant response rating, Sedge, Umbrella [3, 13]: 50 | Lambsquarters plant response rating (0 to 100 scale) (lambsquarters; [16]): 70 | Plant response rating, Lambsquarters (lambsquarters; [17]): 100 | Lambsquarters plant response rating (lambsquarters; [14]): 70 | Lambsquarters plant response rating (lambsquarters; [15]): 80 | Morningglory plant response rating (0 to 100 scale) (morningglory; [16]): 0 | Plant response rating, Morningglory (morningglory; [17]): 0 | Morningglory plant response rating (morningglory; [14]): 0 | Morningglory plant response rating (morningglory; [15]): 20 | Rice plant response rating (rice [4]; 62 g ai/ha, scale 0 to 100): 0 | Rice plant response rating (rice [4]; [11]): 0 | Rice plant response rating (rice [4]; [12]): 0 | Plant response rating, Rice (rice [4]; [13]): 25 | Barnyardgrass plant response rating (barnyardgrass [5]): 60 | Foxtail, Giant plant response rating (0 to 100 scale) (giant foxtail; [16]): 0 | Plant response rating, Foxtail, Giant (giant foxtail; [17]): 20 | Foxtail, Giant plant response rating (giant foxtail; [14]): 0 | Foxtail, Giant plant response rating (giant foxtail; [15]): 20 | Blackgrass plant response rating (blackgrass; 125 g ai/ha): 10 | Blackgrass plant response rating (blackgrass; 500 g ai/ha): 20 | Ducksalad plant response rating (ducksalad [6]; 62 g ai/ha, scale 0 to 100): 0 | Ducksalad plant response rating (ducksalad [6]; [11]): 0 | Ducksalad plant response rating (ducksalad [6]; [12]): 75 | Plant response rating, Ducksalad (ducksalad [6]; [13]): 90 | Cocklebur plant response rating (cocklebur; 125 g ai/ha): 0 | Cocklebur plant response rating (cocklebur; 500 g ai/ha): 10 | Crabgrass, Large plant response rating (0 to 100 scale) (large crabgrass; [16]): 10 | Plant response rating, Crabgrass, Large (large crabgrass; [17]): 60 | Crabgrass, Large plant response rating (large crabgrass; [14]): 10 | Crabgrass, Large plant response rating (large crabgrass; [15]): 20 | Sedge, Umbrella plant response rating [7]: 80 | Rice plant response rating (0 to 100 scale) (rice [8]; 125 g ai/ha): 0 | Plant response rating, Rice (rice [8]; 500 g ai/ha, visual rating): 10 | Pigweed plant response rating (0 to 100 scale) (pigweed; [16]): 80 | Plant response rating, Pigweed (pigweed; [17]): 100 | Pigweed plant response rating (pigweed; [14]): 60 | Pigweed plant response rating (pigweed; [15]): 90 | Velvetleaf plant response rating (0 to 100 scale) (velvetleaf; [16]): 10 | Plant response rating, Velvetleaf (velvetleaf; [17]): 90 | Velvetleaf plant response rating (velvetleaf; [14]): 20 | Velvetleaf plant response rating (velvetleaf; [15]): 20 | Barnyardgrass plant response rating (0 to 100 scale) (barnyardgrass [9]; [16]): 10 | Plant response rating, Barnyardgrass (barnyardgrass [9]; [17]): 40 | Barnyardgrass plant response rating (barnyardgrass [9]; 125 g ai/ha, visual rating): 0 | Barnyardgrass plant response rating (barnyardgrass [9]; 500 g ai/ha, visual rating): 10 | Ducksalad plant response rating (ducksalad [10]): 90
